Source: ChEMBL document CHEMBL5715942, “A novel histone deacetylase 8 (HDAC8)-specific inhibitor PCI-34051 induces apoptosis in T-cell lymphomas” (Leukemia, 2008)
Activity calls are given as the source filed them. The rule behind the calls is not given here.

Tested on: Jurkat
Experiment: Induction of apoptosis in human Jurkat cells assessed as intracellular calcium level at 0.4 uM in presence of Iodo-1 by spectrofluorimetric analysis
Assay type: functional, cell-based

Question: With `COc1ccc2c(c1)CC[C@@H]1[C@@H]2CC[C@]2(C)[C@@H](NCCCCCCN3C(=O)C=CC3=O)CC[C@@H]12` as the compound, how does the Activity read?
Answer: The Activity was “inactive”.
